The values below come from patent US11000033B2, “Ketone or oxime compound, and herbicide” (NISSAN CHEMICAL CORPORATION, priority 2014, dated 2021).

Data set [1] concerns beet. Briefly: Test Example 5: effect on crop by foliage application, plastic box (symbol f). Format: in vivo. Conditions: 3 weeks after application. The method in brief: (§1)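 Crop and weed seeds sown in spots in sterilized diluvial soil in plastic boxes and covered with about 1.5 cm soil. Plants raised in a greenhouse at 25° C. to 30° C. for foliar application.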
The subject of data set [2] is rapeseed. Description: Test Example 4: effect on crop by soil treatment (symbol g). Format: in vivo. A digest of the protocol: (§2)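 Diluvial soil (sterilized) in boxes; seeds placed spot-wise alongside weed species; ~1.5 cm covering soil. Greenhouse, 25–30° C.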
For a further data set, the system named is Setaria viridis. Description: Test Example 5: herbicidal effect by foliage application, plastic box (symbol G). Format: in vivo. As to conditions: 3 weeks after application. A digest of the protocol:
(§3)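 Emulsion formulation, diluted with water to the intended rate, was applied uniformly to leaves by small sprayer. Recipients were 14-day greenhouse-grown seedlings (25° C. to 30° C.). Assessment followed at 3 weeks.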

The subject of a further data set is Lolium multiflorum Lam. Description: Test Example 5: herbicidal effect by foliage application, plastic box (symbol K). Format: in vivo. As to conditions: 3 weeks after application. A digest of the protocol: as §3
The subject of another data set is Cyperus difformis. Briefly: Test Example 3: herbicidal effect by foliage application, Wagner pot (symbol E). Format: in vivo. The method in brief: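 Plants sown in submerged alluvial soil (water depth 0.1–0.5 cm) in a 25–30 °C greenhouse and grown 14 days. An emulsion of the compound diluted in water to a set herbicide amount was sprayed uniformly on foliage. Effect on each plant scored 3 weeks after application.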

Another data set has as its system Monochoria vaginalis. Description: Test Example 1: herbicidal activity, application before weed generation in submerged conditions (symbol C). Format: in vivo. A digest of the protocol:
(§4)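 Application before weed emergence: an aqueous dilution of the emulsion formulation was poured onto the surface of 4 cm-deep floodwater on the day of sowing. Effect was judged after 3 weeks (greenhouse, 25–30 °C).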

A further data set has as its system Scirpus juncoides. Description: Test Example 1: herbicidal activity, application before weed generation in submerged conditions (symbol B). Format: in vivo. A digest of the protocol:
as §4

For the next data set, the system named is corn. Briefly: Test Example 4: effect on crop by soil treatment (symbol c). Format: in vivo. The method in brief:
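Crop seed is sown in spots together with several weed species in a box of sterilized diluvial soil. It is covered by about 1.5 cm of soil and kept in a greenhouse held between 25° C. and 30° C.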

The subject of data set [3] is rapeseed. Briefly: Test Example 5: effect on crop by foliage application, plastic box (symbol g). Format: in vivo. Conditions: 3 weeks after application. A digest of the protocol: as §1
A further data set concerns Galium spurium. Description: Test Example 5: herbicidal effect by foliage application, plastic box (symbol Q). Format: in vivo. Conditions: 3 weeks after application. A digest of the protocol: as §3
A further data set deals with Amaranthus retroflexus. Briefly: Test Example 4: herbicidal effect by soil treatment (symbol N). Format: in vivo. The method in brief: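 Seeds were sown in sterilized diluvial soil, covered with about 1.5 cm of soil, and the soil surface was sprayed with a water-diluted emulsion of the compound at a predetermined rate. Plants grew in a greenhouse at 25° C. to 30° C.; effects were scored visually 3 weeks after application.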

In the next data set the test system is Apera spica-venti. Description: Test Example 5: herbicidal effect by foliage application, plastic box (symbol L). Format: in vivo. As to conditions: 3 weeks after application. A digest of the protocol:
as §3

Data set [4] relates to beet. Description: Test Example 4: effect on crop by soil treatment (symbol f). Format: in vivo. A digest of the protocol: as §2
In the next data set the test system is wheat. Briefly: Test Example 5: effect on crop by foliage application, plastic box (symbol e). Format: in vivo. Conditions: 3 weeks after application. The method in brief: as §1
[5] abbreviates: application herbicide amount 320 g/ha.
Where [6] appears, read: application herbicide amount 102 g/ha.

One may read the melting point as the temperature of the solid-liquid transition. Take `Cc1cc(C)c(C2=C(O)CC(CC(=NOCC(F)(F)F)C3CC3)C2=O)c(C)c1` (stereo not drawn) [1-131]: the melting point lay in the range of 137 to 138 °C. Moreover, the “f: beet, effect on crop (criteria 0-5)” value in the data set with beet [1] (320 g/ha) is 0 (Herbicidal ratio of 5% or lower (almost no effect)). Also, the “g: rapeseed, effect grade on crop” value in the data set on rapeseed [2] (320 g/ha) is 4 (Herbicidal ratio of 70% or higher and lower than 90%). Besides, in the data set with Setaria viridis (320 g/ha), the “G: Setaria viridis, herbicidal effect (criteria 0-5)” value is given as 5 (Herbicidal ratio of 90% or more (almost completely withered)). Moreover, the “K: Lolium multiflorum Lam., herbicidal effect (criteria 0-5)” value in the data set with Lolium multiflorum Lam. (320 g/ha) was 5 (Herbicidal ratio of 90% or more (almost completely withered)). In addition, the “herbicidal effect on E, grade 0-5” value with Cyperus difformis (setting [5]) was 5 (Herbicidal ratio of 90% or more (almost completely withered)). The “Herbicidal effect grade, C: Monochoria vaginalis” value in the data set on Monochoria vaginalis (setting [5]) was 1 (Herbicidal ratio of 5% or higher and lower than 20%). Also, the “Herbicidal effect grade, B: Scirpus juncoides” value with Scirpus juncoides (setting [5]) is 4 (Herbicidal ratio of 70% or higher and lower than 90%). Further, the “c: corn, effect grade on crop” value in the data set on corn (320 g/ha) is given as 0 (Herbicidal ratio of 5% or lower (almost no effect)). Further, the “g: rapeseed, effect on crop (criteria 0-5)” value in the data set with rapeseed [3] (320 g/ha) is 5 (Herbicidal ratio of 90% or more (almost completely withered)). In addition, the “Q: Galium spurium, herbicidal effect (criteria 0-5)” value in the data set on Galium spurium (320 g/ha) is 0 (Herbicidal ratio of 5% or lower (almost no effect)). The “N: Amaranthus retroflexus, herbicidal effect grade” value with Amaranthus retroflexus (320 g/ha) was 0 (Herbicidal ratio of 5% or lower (almost no effect)). Also, the “L: Apera spica-venti, herbicidal effect (criteria 0-5)” value with Apera spica-venti (320 g/ha) is 5 (Herbicidal ratio of 90% or more (almost completely withered)). Further, the “f: beet, effect grade on crop” value in the data set on beet [4] (320 g/ha) is on record as 0 (Herbicidal ratio of 5% or lower (almost no effect)). In addition, in the data set on wheat (320 g/ha), the “e: wheat, effect on crop (criteria 0-5)” value was 2 (Herbicidal ratio of 20% or higher and lower than 40%).

In turn, `CC(=O)CC1CC(O)=C(c2c(C)cc(C)cc2C)C1=O` (stereo not drawn) [2-001, 3-hydroxy-2-mesityl-5-(2-oxopropyl)cyclopent-2-enone] yielded a melting point of 183 to 185 °C. In addition, the “f: beet, effect on crop grade” value in the data set with beet [1] (102 g/ha) is 1 (Herbicidal ratio of 5% or higher and lower than 20%). The “g: rapeseed, effect grade on crop” value in the data set with rapeseed [2] (102 g/ha) is 3 (Herbicidal ratio of 40% or higher and lower than 70%). In addition, the “G: Setaria viridis, herbicidal effect grade” value in the data set with Setaria viridis (102 g/ha) was 4 (Herbicidal ratio of 70% or higher and lower than 90%). In the data set on Lolium multiflorum Lam. (102 g/ha), the “K: Lolium multiflorum Lam., herbicidal effect grade” value is reported as 5 (Herbicidal ratio of 90% or more (almost completely withered)). The “herbicidal effect on E, grade 0-5” value in the data set on Cyperus difformis (setting [6]) is 5 (Herbicidal ratio of 90% or more (almost completely withered)). Moreover, the “Herbicidal effect grade, C: Monochoria vaginalis” value in the data set on Monochoria vaginalis (setting [6]) is 0 (Herbicidal ratio of 5% or lower (almost no effect)). Besides, the “Herbicidal effect grade, B: Scirpus juncoides” value with Scirpus juncoides (setting [6]) is recorded as 0 (Herbicidal ratio of 5% or lower (almost no effect)). Besides, in the data set on corn (102 g/ha), the “c: corn, effect grade on crop” value was 4 (Herbicidal ratio of 70% or higher and lower than 90%). Moreover, in the data set with rapeseed [3] (102 g/ha), the “g: rapeseed, effect on crop grade” value is 4 (Herbicidal ratio of 70% or higher and lower than 90%). For the same compound, in the data set on Galium spurium (102 g/ha), the “Q: Galium spurium, herbicidal effect grade” value is 3 (Herbicidal ratio of 40% or higher and lower than 70%). In addition, in the data set on Amaranthus retroflexus (102 g/ha), the “N: Amaranthus retroflexus, herbicidal effect grade” value was 1 (Herbicidal ratio of 5% or higher and lower than 20%). For the same compound, the “L: Apera spica-venti, herbicidal effect grade” value with Apera spica-venti (102 g/ha) was 4 (Herbicidal ratio of 70% or higher and lower than 90%). In the data set on beet [4] (102 g/ha), the “f: beet, effect grade on crop” value is on record as 0 (Herbicidal ratio of 5% or lower (almost no effect)). Also, the “e: wheat, effect on crop grade” value in the data set with wheat (102 g/ha) was 0 (Herbicidal ratio of 5% or lower (almost no effect)).
